Like-named read-outs stand apart in the source and are kept apart here.
Assays:
Assay in all cases: Sulforhodamine B (SRB) cytotoxicity test
Assay type in all cases: cell-based
[1] = tested on: MCF-7 (Breast Cancer); conditions: cells cultured 3 days with compound, read-out: Half Inhibitory Concentration for Tumor Cell Growth (IC50)
Procedure: (§1) Sulforhodamine B (SRB) test was used for screening the selective compounds of the present invention according to their anti-tumor activity on four different tumor cell lines. In SRB analysis, the cultured cells were trypsinized, counted and diluted to a suitable concentration (5000-7500 cells/100 μl) with a culture medium. The cells were inoculated into a 96-well microtiter plate at 100 μl suspension/well. After 20 hours, the test compounds which were diluted in the culture medium to 2×1000 nM˜2×0.001 nM were added to each well. The cells were then cultured for 3 days, fixed with 100 μl 10% trichloroacetic acid at 4° C. for 1 hour, and then stained with 0.2% SRB/1% acetic acid at room temperature for 20 min. The unbound dye was rinsed with 1% acetic acid. The bound dye was dissolved with 200 μl 10 mM Tris-base. The amount of the bound dye was calculated from OD value detected at the wavelength of 515 nm. The amount of the bound dye was in direct proportion to the total amount of cell proteins. The data was analyzed with Kaleida Graph program, and the half inhibitory concentration (IC50) was calculated. Epothilones D and B were detected in parallel for Comparison. The results of the cytotoxicity experiments on the selected test compounds of the present invention are shown as follows. The other compounds of the present invention may also be detected with a similar method.

[2] = tested on: NCI/ADR-RES (MDR Breast Cancer); conditions: cells cultured 3 days with compound, read-out: Half Inhibitory Concentration for Tumor Cell Growth (IC50)
Procedure: as §1

[3] = tested on: NCl-H460 (Lung Cancer); conditions: cells cultured 3 days with compound, read-out: Half Inhibitory Concentration for Tumor Cell Growth (IC50)
Procedure: as §1

[4] = tested on: SF-268 (Glioma); conditions: cells cultured 3 days with compound, read-out: Half Inhibitory Concentration for Bacterial Growth (IC50)
Procedure: as §1

14-NH2 Epothilone D [II-A]
IC50 [1]: 7 nM | IC50 [2]: 12 nM | IC50 [3]: 7 nM | IC50 [4]: 6 nM

C/C1=C/C[C@@H](/C(C)=C/c2csc(C)n2)OC(=O)C[C@H](O)C(C)(C)C(=O)[C@H](C)[C@@H](O)[C@@H](C)CCC1 [Epo D, Epothilone D, reference compound]
IC50 [1]: 13 nM | IC50 [2]: 42 nM | IC50 [3]: 17 nM | IC50 [4]: 18 nM

C/C(=C\c1csc(C)n1)[C@@H]1C[C@@H]2O[C@]2(C)CCC[C@H](C)[C@H](O)[C@@H](C)C(=O)C(C)(C)[C@@H](O)CC(=O)O1 [Epo B, Epothilone B, reference compound]
IC50 [1]: 0.5 nM | IC50 [2]: 5 nM | IC50 [3]: 0.7 nM | IC50 [4]: 0.8 nM

COC1/C=C(/C)CCC[C@H](C)[C@H](O)[C@@H](C)C(=O)C(C)[C@@H](O)CC(=O)O[C@@H]1/C(C)=C/c1csc(C)n1 (stereo partly drawn) [II-N]
IC50 ([1]; Homo sapiens, MCF7, 72 h): 2 nM | IC50 ([2]; Homo sapiens, 72 h): 7 nM | IC50 ([3]; 72 h): 2 nM | IC50 ([4]; Homo sapiens, 72 h): 3 nM

14-NH2 Epothilone B [II-B]
IC50 [1]: 0.1 nM | IC50 [2]: 0.5 nM | IC50 [3]: 0.2 nM | IC50 [4]: 0.2 nM

14-N(CH3)2 Epothilone B [II-L]
IC50 [1]: 0.05 nM | IC50 [2]: 0.1 nM | IC50 [3]: 0.5 nM | IC50 [4]: 1 nM
